Assay results reported in US12263156B2, “Use of small molecule inhibitors of the BfrB:Bfd interaction in biofilms” (priority 2020, dated 2025).

Legend:
Format in all cases: cell-based, Pseudomonas aeruginosa
[1] = system: P. aeruginosa clinical isolate PA_1076058; conditions: 2-day old pellicles, 24 h, 1.2× the IC50 (KM-5-25 80 μM; KM-5-66 50 μM)
Description: (§1) Pellicle biofilms were grown as described above.
(§2) To investigate whether the compounds are also active against other strains of P. aeruginosa, pellicles of several clinical isolates from JMI Laboratories were cultured. […] To gain a broader understanding of the potential activity spectrum of the BfrB-Bfd inhibitors against P. aeruginosa strains, BLASTp^62 was used to find homologs of BfrB and Bfd sequences in the >4,400 P. aeruginosa genomes in the Pseudomonas Genome Database.^63 The results reveal two important facts: (i) The bfrB and bfd genes are adjacent to one another in all the P. aeruginosa strains, (ii) There is an extremely high level of conservation among the bfd and bfrB sequences. These findings evidence that the compounds of the present technology are broadly active against P. aeruginosa.

[2] = system: P. aeruginosa clinical isolate PA_1081725; conditions: 2-day old pellicles, 24 h, 1.2× the IC50 (KM-5-25 80 μM; KM-5-66 50 μM)
Description: as §1, §2

[3] = system: P. aeruginosa PAO1; experiment: Half maximal inhibitory concentration (IC50) of planktonic growth, CFU/mL enumeration; conditions: for IC50: Pseudomonas aeruginosa, PAO1, planktonic growth, 24 h, 35° C, defined media, 2% DMSO, average ± SD of three experiments
Description: Chemicals were purchased from Fisher Scientific (Waltham, MA) unless otherwise stated. P. aeruginosa PAO1 was obtained from the University of Washington Genome center.^80 The PAO1 strain expressing enhanced yellow fluorescent protein (EYFP) was prepared as described in Soldano, A.; Yao, H.; Chandler, J. R.; Rivera, M. (2020) Inhibiting Iron Mobilization from Bacterioferritin in Pseudomonas aeruginosa Impairs Biofilm Formation Irrespective of Environmental Iron Availability. ACS Infect. Dis. 6, 447-458. 10.1021/acsinfecdis.9b00398.^26 Clinical isolates of P. aeruginosa were purchased from JMI Laboratories (North Liberty, IA, USA). […] Starter cultures of P. aeruginosa PAO1 in 5 mL LB media were grown for 13 hours in 50 mL conical tubes at 37° C. and 220 rpm. For biofilm experiments, a EYFP-expressing P. aeruginosa strain was routinely grown in Pseudomonas Isolation (PI) media (20 g L^−1 peptone, 0.3 g L^−1 MgCl2·6H O, 10 g L^−1 K2SO4, 25 mg L^−1 irgasan, and 20 mL L^−1 glycerol, pH 7.0). Starter cultures were grown from a single colony at 37° C. and shaking at 220 rpm for 14 hours in 5 mL PI media supplemented with 10 μM Fe. Pellicle biofilms were cultured for 48 hours at 30° C. in PI media supplemented with 20 μM Fe. Surface-attached biofilms were cultured in AB minimal media^81 supplemented with trace metals [0.15 μM (NH4)2MoO4, 3 μM CuSO4, 2 μM Co(NO3)2, 9.4 μM Na2B4O7, and 7.6 μM ZnSO4], 3 mM glucose and 15 μM Fe. Iron supplementation was carried out by addition of a small volume of filter-sterilized 10 mM (NH4)2Fe(SO4)2 (pH˜2.0) solution. […]; IC50 values (Table 1 below) were determined as reported previously^25 with small modifications. In brief: precultures of P. aeruginosa PAO1 (5 mL) were grown in LB media for 13 hours at 37° C. and 220 rpm in 50 mL conical tubes (VWR International, PA). The cells were centrifuged for 5 min at 4,000 rpm and 4° C., washed two times and then diluted in buffer (100 mM KH2PO4 and 15 mM (NH4)2SO4 to an optical density at 600 nm (OD600) of 0.1. A small volume of compound stock solution (10 mM) was transferred to a microcentrifuge tube, initially diluted with DMSO to 20 μL, and then diluted to 1 mL with preculture cell suspension in defined media with OD600=0.0001, so the final DMSO concentration is 2%. The resultant cell suspension (200 μL) was transferred to a clear-bottom polystyrene 96-well plate (VWR International, PA) covered with a lid and incubated at 35° C. and 205 cpm for 24 h in a Synergy H1 microplate reader (Biotek Instruments Inc., Winooski, VT). The cell cultures were serially diluted and then plated on PI Agar (PIA; BD Biosciences, San Jose, CA) plates for enumeration of viable cells (CFU/mL). The % growth was calculated from the ratio CFU/mL(treated)/CFU/mL(untreated control). To calculate the IC50 values, the % growth was plotted as a function of compound concentration, expressed as log[compound] (μM), and fitted to the 4-parameter logistic model describing the sigmoid-shaped response pattern (equation 1),^83 where b is the slope factor, max is the upper asymptote (plateau), and min is the lower asymptote. Values are the average and standard deviation from three independent experiments.

O=C1NC(=O)c2c(NCCCc3cc(O)cc(Cl)c3)cccc21 [KM-5-66]
reduction of viable cells [1]: approximately 80% | reduction of viable cells [2]: approximately 80% | IC50 [3]: 42 ± 6 µM | fold decrease of IC50 relative to compound 16 ([3]; relative to compound 16): ~3 fold

O=C1NC(=O)c2c(NCc3cc(Cl)ccc3O)cccc21 [KM-5-25]
reduction of viable cells [1]: approximately 80% | reduction of viable cells [2]: approximately 80% | IC50 [3]: 69 ± 7 µM | fold lower IC50 relative to JAG-5-7 ([3]; relative to JAG-5-7): ~2 fold
